ChEMBL document CHEMBL1156137, “Synthesis and biological evaluation of 2-amino-7,7-dimethyl 4-substituted-5-oxo-1-(3,4,5-trimethoxy)-1,4,5,6,7,8-hexahydro-quinoline-3-carbonitrile derivatives as potential cytotoxic agents” (Bioorg Med Chem Lett, 2009)

Legend:
[1] = Cytotoxicity against mouse EAC cells assessed as nonviable cell at 50 ug/mL relative to doxorubicin; type: functional, Ehrlich
[2] = Cytotoxicity against mouse EAC cells; type: functional, cell-based, Ehrlich
[3] = Cytotoxicity against mouse EAC cells assessed as nonviable cell at 25 ug/mL relative to doxorubicin; type: functional, Ehrlich
[4] = Cytotoxicity against mouse EAC cells assessed as nonviable cell at 100 ug/mL relative to doxorubicin; type: functional, Ehrlich
[5] = Cytotoxicity against mouse EAC cells assessed as nonviable cell at 10 ug/mL relative to doxorubicin; type: functional, Ehrlich
[6] = Mus musculus, Ehrlich, read-out: IC50

Compound `COc1cc(N2C(N)=C(C#N)C(c3c(O)ccc4ccccc34)C3=C2CC(C)(C)CC3=O)cc(OC)c1OC` (stereo not given) has an Activity [1] of 15%, an IC50 [2, 6] of 143 µM and an Activity [3] of 10%. For the same compound, the Activity [4] was 90% and the Activity [5] was 2%.

In the case of `COc1cccc2c1C(=O)c1c(O)c3c(c(O)c1C2=O)C[C@@](O)(C(=O)CO)C[C@@H]3O[C@H]1C[C@H](N)[C@H](O)[C@H](C)O1` [DOXORUBICIN], the Activity [1] is reported as 68%, the IC50 [2, 6] is reported as 68.1 µM and the Activity [3] is reported as 30%. The Activity [4] was 100% and the Activity [5] was 24%.

For `COc1cc(N2C(N)=C(C#N)C(/C=C/c3ccccc3)C3=C2CC(C)(C)CC3=O)cc(OC)c1OC` (stereo not given), the Activity [1] was 30%, the IC50 ([2]; ehrlich) was “Not Active” and the Activity [3] was 30%. For the same compound, the Activity [4] was 40% and the Activity [5] was 10%.

For `COc1cc(N2C(N)=C(C#N)C(c3ccccc3Cl)C3=C2CC(C)(C)CC3=O)cc(OC)c1OC` (stereo not given), the Activity [1] was 20%, the IC50 ([2]; ehrlich) was “Not Active” and the Activity [3] was 15%. It also gave an Activity [4] of 20% and an Activity [5] of 10%.

With `COc1cc(N2C(N)=C(C#N)C(c3ccccc3O)C3=C2CC(C)(C)CC3=O)cc(OC)c1OC` (stereo not given) the Activity [1] was 2%, the IC50 ([2]; ehrlich) was “Not Active” and the Activity [3] was 0%. It also gave an Activity [4] of 10% and an Activity [5] of 0%.

With `COc1cc(N2C(N)=C(C#N)C(c3cccc([N+](=O)[O-])c3)C3=C2CC(C)(C)CC3=O)cc(OC)c1OC` (stereo not given) the Activity [1] was 30%, the IC50 ([2]; ehrlich) was “Not Active” and the Activity [3] was 20%. For the same compound, the Activity [4] was 30% and the Activity [5] was 5%.

`COc1ccccc1C1C(C#N)=C(N)N(c2cc(OC)c(OC)c(OC)c2)C2=C1C(=O)CC(C)(C)C2` (stereo not given) showed an Activity [1] of 70%, an IC50 [2, 6] of 26.6 µM and an Activity [3] of 65%. It also gave an Activity [4] of 100% and an Activity [5] of 30%.

Work on `COc1cc(N2C(N)=C(C#N)C(c3ccc(Cl)cc3Cl)C3=C2CC(C)(C)CC3=O)cc(OC)c1OC` (stereo not given) yielded an Activity [1] of 95%, an IC50 [2, 6] of 94.7 µM and an Activity [3] of 55%. The Activity [4] was 100% and the Activity [5] was 20%.

Compound `COc1cc(N2C(N)=C(C#N)C(c3ccc(C)cc3)C3=C2CC(C)(C)CC3=O)cc(OC)c1OC` (stereo not given) has an Activity [1] of 60%, an IC50 [2, 6] of 52.9 µM and an Activity [3] of 50%. It also gave an Activity [4] of 90% and an Activity [5] of 30%.

With `CCOc1cc(C2C(C#N)=C(N)N(c3cc(OC)c(OC)c(OC)c3)C3=C2C(=O)CC(C)(C)C3)ccc1O` (stereo not given) the Activity [1] was 40%, the IC50 ([2]; ehrlich) was “Not Active” and the Activity [3] was 10%. The Activity [4] was 45% and the Activity [5] was 2%.

With `COc1cc(N2C(N)=C(C#N)C(c3ccc(OC)c(OC)c3OC)C3=C2CC(C)(C)CC3=O)cc(OC)c1OC` (stereo not given) the Activity [1] was 30%, the IC50 ([2]; ehrlich) was “Not Active” and the Activity [3] was 30%. For the same compound, the Activity [4] was 40% and the Activity [5] was 20%.

In the case of `COc1cc(N2C(N)=C(C#N)C(c3c(OC)ccc4ccccc34)C3=C2CC(C)(C)CC3=O)cc(OC)c1OC` (stereo not given), the Activity [1] is reported as 10%, the IC50 ([2]; ehrlich) is reported as “Not Active” and the Activity [3] is reported as 5%. The Activity [4] was 30% and the Activity [5] was 0%.

With `COc1ccc(C2C(C#N)=C(N)N(c3cc(OC)c(OC)c(OC)c3)C3=C2C(=O)CC(C)(C)C3)cc1` (stereo not given) the Activity [1] was 11%, the IC50 ([2]; ehrlich) was “Not Active” and the Activity [3] was 1%. The Activity [4] was 15% and the Activity [5] was 0%.

For `COc1cc(N2C(N)=C(C#N)C(c3ccc([N+](=O)[O-])cc3)C3=C2CC(C)(C)CC3=O)cc(OC)c1OC` (stereo not given), the Activity [1] was 70%, the IC50 [2, 6] was 25 µM and the Activity [3] was 50%. The Activity [4] was 80% and the Activity [5] was 10%.

With `COc1cc(N2C(N)=C(C#N)C(c3ccccc3)C3=C2CC(C)(C)CC3=O)cc(OC)c1OC` (stereo not given) the Activity [1] was 8%, the IC50 ([2]; ehrlich) was “Not Active” and the Activity [3] was 6%. For the same compound, the Activity [4] was 10% and the Activity [5] was 0%.

With `COc1cc(C2C(C#N)=C(N)N(c3cc(OC)c(OC)c(OC)c3)C3=C2C(=O)CC(C)(C)C3)ccc1O` (stereo not given) the Activity [1] was 30%, the IC50 ([2]; ehrlich) was “Not Active” and the Activity [3] was 20%. It also gave an Activity [4] of 40% and an Activity [5] of 10%.

Work on `COc1cc(N2C(N)=C(C#N)C(c3ccc(O)cc3)C3=C2CC(C)(C)CC3=O)cc(OC)c1OC` (stereo not given) yielded an Activity [1] of 90%, an IC50 [2, 6] of 75.8 µM and an Activity [3] of 20%. The Activity [4] was 100% and the Activity [5] was 10%.

In the case of `COc1cc(N2C(N)=C(C#N)C(c3ccc(C)o3)C3=C2CC(C)(C)CC3=O)cc(OC)c1OC` (stereo not given), the Activity [1] is reported as 41%, the IC50 [2, 6] is reported as 216 µM and the Activity [3] is reported as 31%. For the same compound, the Activity [4] was 50% and the Activity [5] was 21%.

For `COc1cc(N2C(N)=C(C#N)C(c3ccc(OC)c4ccccc34)C3=C2CC(C)(C)CC3=O)cc(OC)c1OC` (stereo not given), the Activity [1] was 40%, the IC50 ([2]; ehrlich) was “Not Active” and the Activity [3] was 30%. The Activity [4] was 40% and the Activity [5] was 10%.

For `COc1cc(N2C(N)=C(C#N)C(c3cccs3)C3=C2CC(C)(C)CC3=O)cc(OC)c1OC` (stereo not given), the Activity [1] was 15%, the IC50 ([2]; ehrlich) was “Not Active” and the Activity [3] was 10%. It also gave an Activity [4] of 20% and an Activity [5] of 5%.

With `COc1cc(N2C(N)=C(C#N)C(c3ccc4c(c3)OCO4)C3=C2CC(C)(C)CC3=O)cc(OC)c1OC` (stereo not given) the Activity [1] was 40%, the IC50 ([2]; ehrlich) was “Not Active” and the Activity [3] was 30%. The Activity [4] was 40% and the Activity [5] was 10%.
